What all share (assay type): cell-based, mouse
Experiment [1] relates to syno^−/− MEFs. Nature of the experiment: TUNEL apoptosis assay of MEFs treated with apoptotic stimuli. Particulars: thapsigargin 1 μM 48 h, tunicamycin 10 ng/ml 48 h; for proportion of apoptotic (TUNEL-positive) cells: syno^−/− MEFs, low serum (1% FCS), anti-Fas 1 μg/ml 48 h. Here is the method: (§1) Apoptosis can be induced through several pathways. To identify the apoptotic pathway that describes Synoviolin involvement, mouse embryonic fibroblasts (MEFs) isolated from syno^−/− and wild-type mice were treated in vitro with the following four apoptotic stimuli, monoclonal anti-Fas antibodies (Abs), gamma-irradiation, tunicamycin (N-glycosylation inhibitor), and thapsigargin (Ca^2-ATPase inhibitor). Under control conditions, the proportion of syno^−/− MEF apoptotic cells was higher (16±4%) than MEF wild-type (6±2%, FIG. 5A). […] Moreover, the sensitivity against ER stress-induced agents was increased in a dose-dependent fashion (FIG. 5B).
(§2) Tissues were prepared as described above. Conditioned culture cells were fixed in 10% formalin for 15 minutes and attached to APS-coated slide glasses. These specimens were subjected to TUNEL assay. TUNEL assay was performed according to the protocol provided by the manufacturer (Apoptosis in situ detection kit; Wako, Osaka, Japan).
(§3) MEFs were isolated from E10.5 embryos of syno^−/− and wild-type mice by trypsin digestion after removal of the head and internal organs. Isolated cells were cultured in Dulbecco's modified Eagle's medium containing 20% fetal calf serum (FCS).
(§4) (A) MEFs derived from syno^+/+ and syno^−/− mice were treated with various apoptotic stimuli, including anti-Fas monoclonal antibodies (1μg/ml for 48 hours), X-irradiation (6 Gy for 72 hours), thapsigargin (1 μM for 48 hours) and tunicamycin (10 ng/ml for 48 hours), or untreated (−), in low serum (1%FCS) medium. Apoptotic cells were detected by TUNEL analysis. (B) syno^+/+ and syno^−/− MEFs were treated with indicated dose of stimuli. Apoptosis was measured by quantitation of DNA fragmentation using the cell death detection ELISA method (Boehringer Mannheim). *p<0.01. The number of apoptotic syno^−/− MEFs was higher in cultures treated with thapsigargin and tunicamycin compared with the respective syno^+/+ MEFs. (C) syno^+/+ and syno^−/− MEFs were infected with adenovirus vector (100 moi) carrying LacZ(−) or synoviolin gene(+), then treated with the same aforementioned agents. In syno^−/− MEFs, ER-stress induced apoptosis was rescued by infection with synoviolin.

The test system of another experiment is wild-type MEFs. Described as above. Particulars: low serum (1% FCS), anti-Fas 1 μg/ml 48 h, thapsigargin 1 μM 48 h, tunicamycin 10 ng/ml 48 h. The method, then:
as §1, §2, §3, §4

For experiment [2], the system named is syno^−/− MEFs. The experiment is described as follows: DNA fragmentation, cell death detection ELISA. The note with it: indicated doses of stimuli, FIG. 5B, p<0.01. Here is the method: as §4

On to `C/C=C(/C)C(=O)O[C@H]1C(C)=C2[C@H]([C@@H]1OC(=O)CCCCCCC)[C@@](C)(OC(C)=O)C[C@H](OC(=O)CCC)[C@@]1(O)[C@H]2OC(=O)[C@@]1(C)O` [thapsigargin], for which, in the experiment on syno^−/− MEFs [1], the “proportion of apoptotic (TUNEL-positive) cells” value (from here on “proportion of apoptotic”) is reported as 90±1% and the “increase in number of TUNEL-positive syno^−/− MEFs compared with wild-type MEFs” value worked out at 2.4 fold. In addition, the “proportion of apoptotic” value in the experiment with wild-type MEFs is listed as 38±7%. In the experiment with syno^−/− MEFs [2], the “number of apoptotic syno^−/− MEFs compared with the respective syno^+/+ MEFs” value is “higher”.

Take tunicamycin: in the experiment on syno^−/− MEFs [1], the “proportion of apoptotic” value is given as 56±3% and the “increase in number of TUNEL-positive syno^−/− MEFs compared with wild-type MEFs” value is 1.7 fold. In the experiment with wild-type MEFs, the “proportion of apoptotic” value turned out to be 33±7%. Further, the “number of apoptotic syno^−/− MEFs compared with the respective syno^+/+ MEFs” value in the experiment on syno^−/− MEFs [2] is reported as “higher”.

The record behind these values is patent publication US20070059294A1, “Therapeutiv preparation for hematopoietic disease” (priority 2003, published 2007).
